Laboratory results taken from US4921958A, “Piperazinylalkylcarboxylic acid adamantylamides” (American Home Products Corporation, priority 1989, dated 1990).
pKi: −log10 of the molar value. Read-outs that look alike come from different tables or passages of the source.

Assays:
[1] = biological target: T1, 5-HT1A serotonin receptor subtype (Rattus norvegicus, UniProt P19327); experiment: Displacement of 3H-8-OH DPAT from the 5-HT1A serotonin receptor subtype (Hall et al.); type: binding; conditions: for inhibition at 1 µM: 1 μM test compound, read-out: % Inhibition at 1 μM (Affinity for 5-HT1A Receptor Sites); for pKi: calculated from appropriate IC50 values, 3H-8-OH DPAT, read-out: Ki (Affinity for 5-HT1A Receptor Sites)
T1 construct: from tissue
T1 sequence (P19327 1-422): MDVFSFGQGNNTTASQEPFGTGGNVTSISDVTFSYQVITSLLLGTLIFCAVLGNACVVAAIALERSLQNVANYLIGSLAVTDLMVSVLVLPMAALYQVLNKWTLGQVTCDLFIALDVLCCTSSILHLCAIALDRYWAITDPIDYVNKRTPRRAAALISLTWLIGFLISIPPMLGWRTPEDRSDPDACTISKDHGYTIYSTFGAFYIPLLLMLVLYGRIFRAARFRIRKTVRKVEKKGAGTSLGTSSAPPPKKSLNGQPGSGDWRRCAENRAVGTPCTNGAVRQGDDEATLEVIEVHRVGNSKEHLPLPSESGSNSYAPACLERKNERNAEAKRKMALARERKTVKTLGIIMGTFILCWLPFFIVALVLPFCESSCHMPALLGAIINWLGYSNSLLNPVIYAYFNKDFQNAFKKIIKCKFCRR
From the text: The serotoninergic properties of the compounds of this invention were established by the procedure of Hall et al., J. Neurochem.

[2] = biological target: T2, limbic D2 (dopamine) receptor (Rattus norvegicus, UniProt P61169); experiment: Inhibition of 3H-spiroperidol binding to limbic brain tissue (D2 receptor affinity; modified Fields et al. and Yamamura et al.); conditions: 1 μM test compound
T2 construct: from tissue; host or cells: limbic brain tissue
Protocol: The compounds of this invention are antidepressant, anxiolytic agents useful in the treatment of depression and/or anxiety as a singular, primary mental problem as well as secondary, attending problems such as sexual dysfunction. […] The D2 receptor affinity of the compounds of this invention was determined by a modification of the test procedure of Fields et al., Brain Res. 136, 578 (1977) and Yamamura et. al., eds., Neurotransmitter Receptor Binding, Raven Press, N.Y. (1978) as discussed in U.S. No. 4,636,563. The percentage reduction of ^3 H-spiroperidol binding at 1 μM concentration of test compound is reported, infra.

[3] = in words, Barone et al., 1986; cited from earlier work
[4] = 3H-spiroperidol, read-out: % Inhibition at 1 μM (Affinity for D2 Receptor Sites)

T2 sequence (P61169 whole entry): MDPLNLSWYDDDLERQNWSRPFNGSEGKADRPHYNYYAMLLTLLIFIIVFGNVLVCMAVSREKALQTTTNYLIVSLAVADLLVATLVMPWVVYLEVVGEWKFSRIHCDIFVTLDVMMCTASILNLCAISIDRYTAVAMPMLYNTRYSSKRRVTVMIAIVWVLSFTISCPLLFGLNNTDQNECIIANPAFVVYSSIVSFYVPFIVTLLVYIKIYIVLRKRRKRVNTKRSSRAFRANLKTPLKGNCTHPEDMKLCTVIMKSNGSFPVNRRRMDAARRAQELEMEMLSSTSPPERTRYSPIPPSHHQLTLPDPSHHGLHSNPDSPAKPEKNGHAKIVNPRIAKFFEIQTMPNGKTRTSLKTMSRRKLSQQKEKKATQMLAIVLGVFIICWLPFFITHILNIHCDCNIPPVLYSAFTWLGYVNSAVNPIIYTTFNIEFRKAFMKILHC

inhibition at 1 µM ([1]; displacement of 3H-8-OH DPAT)	pKi [1]	inhibition at 1 µM [2, 4]	inhibition at 0.1 µM ([1]; 100 nM test compound, displacement of 3H-8-OH DPAT, read-out: % Inhibition at 100 nM (Affinity for 5-HT1A Receptor Sites))	inhibition at 1 µM ([2]; limbic brain tissue, read-out: inhibition of 3H-spiroperidol binding to limbic brain tissue)	Structure (SMILES)	clinical efficacy as anxiolytic-antidepressant agents [3]
79%	6.89	14%			O=C(CCN1CCN(c2ncccn2)CC1)NC12CC3CC(CC(C3)C1)C2 [Example 1, 4-(2-pyrimidyl)-N-tricyclo[3.3.1.1(3.7)]dec-1-yl-1-piperazinepropanamide]	
100%	8.05	74%	86%	74%	COc1ccccc1N1CCN(CCC(=O)NC23CC4CC(CC(C4)C2)C3)CC1 [Example 2, 4-(2-methoxyphenyl)-N-tricyclo[3.3.1.1(3,7)]dec-1-yl-1-piperazinepropanamide]	
	7.08				COc1ccccc1N1CCN(CC(C(=O)NC23CC4CC(CC(C4)C2)C3)c2ccccc2)CC1 (stereo not shown) [Example 3, N-(1-Tricyclo[3.3.1.1(3,7)]decyl)-3-[1-[4-(2-methoxyphenyl)piperazinyl]]-2-phenylpropanamide]	
					Cc1nc2sccn2c(=O)c1CCN1CCC(=C(c2ccc(F)cc2)c2ccc(F)cc2)CC1 [Ritanserin]	demonstrate clinical efficacy
